Laboratory results from article PMC12508057, “Discovery of ETI41 and ETI60: novel selective endosomal Toll-like receptor inhibitors for the treatment of autoimmune diseases” (Experimental & Molecular Medicine, 2025).

Tested on: endosomal and lysosomal pH
Experiment: pH assay of endosomes and lysosomes in RAW 264.7
Assay type: cell-based, mouse
Protocol: RAW 264.7 cells were seeded into black 96-well plates at […] cells per well and incubated overnight. After washing, the cells were treated with phenol-free RPMI 1640 medium (Gibco). Following 30 min of treatment with ETI41 or ETI60, cells were incubated with 20 µg/ml of pHrodo Red Dextran (Thermo Fisher Scientific) or 10 µM LysoSensor Yellow/Blue DND-160 (Thermo Fisher Scientific). Fluorescence was measured using a BioTek Synergy HTX Multimode Microplate Reader. Data were analyzed using the BioTek Gen5 software.
Fig. 3 Binding mechanism of ETI41 and ETI60 with TLR7 and TLR9. a ETI41 and ETI60 bind to the extracellular domain of TLR7. b Detailed intermolecular interactions ofETI41 and ETI60 are shown with the key residues of TLR7. c ETI41 and ETI60 bind to the extracellular domain of TLR9. d Intermolecular interactions of ETI41 and ETI60 with the key residues of TLR9. The asterisk indicates chain A of TLR7 and TLR9. ETI41 and ETI60 are depicted in ball-and-stick models. Bonds are represented by lines, with distances measured in ångström (Å) units. […] Data presented are from three independent experiments (n = 3), and statistical differences between the induced case and other cases were analyzed and verified using a one-tailed Student’s t-test (*P < 0.05, **P < 0.01, ***P < 0.001). […]

Cc1cc2c(N)c3c(nc2n1CCCN(C)C)CCCCCC3 [ETI41]
pH of endosomes containing TLR3, TLR7, TLR8 and TLR9: did not significantly affect

COc1ccc2c3c(N)c4c(nc3n(CCCN(C)C)c2c1)CCCC4 [ETI60]
pH of endosomes containing TLR3, TLR7, TLR8 and TLR9: did not significantly affect
